According to US20110165115A1, “SYNERGISTIC ATTRACTANTS FOR PESTIFEROUS SOCIAL INSECTS” (STERLING INTERNATIONAL INC., priority 2010, published 2011):

Assays:
[1] = system: D. arenaria; experiment: Field trapping Experiment 3, different doses of DMNT alone; type: in vivo, Dolichovespula arenaria
Method: (§1) Three field trapping experiments were carried out during late July to early August 2009, in residential and woody areas around Spokane, Wash., USA, using the newly marketed Rescue® W•H•Y traps (www.rescue.com). As used herein, the W•H•Y trap is a trap in accordance with the description of United States Patent Application Publication No. 2009/0151228. The W•H•Y trap has a top chamber and a bottom chamber. The top chamber is baited with two attractants—one of which is a solid contained in a vial (2-methyl-1-butanol) and the other a liquid mixed with water (acetic acid), herein referred to as the W•H•Y top attractant. The bottom chamber is baited with a liquid attractant (heptyl butyrate) poured onto a cotton pad, herein referred to as the W•H•Y bottom attractant. Separation of the top and bottom attractants (otherwise antagonistic to each other when released from the same chamber) in two chambers was a design feature of this trap and creates two focal attraction sources from one trap for different species of wasps, hornets, and yellowjackets. Traps were hung 1.5-2.0 m above the ground on either the fence or tree branches ca. 5 m apart within each trap line. For each trapping experiment, six sets of traps were deployed with their initial trap positions within each set being randomized. To minimize positional effects and obtain more replications, wasp collections and trap re-randomization were carried out when ≧10-20 wasps were caught in the best trap. Each replicate lasted several days depending on wasp flight activity. Captured wasps were removed from the traps and kept in the zip-bags before taking back to the laboratory for recording of the species, gender status, and catch.
(§2) Experiment 1 (Jul. 22-30, 2009) tested ten synthetic HIPV candidates [(E)-2-hexenal, (Z)-3-hexen-1-ol, (Z)-3-hexenyl acetate, cis-ocimene, linalool, methyl salicylate, geranyl acetate, trans-β-caryophyllene, trans-β-farnesene and (E)-4,8-dimethyl-1,3,7-nonatriene], including several paper wasp EAD-active compounds (see FIG. 2 for details), to determine their potential synergistic effect on the Rescue® W•H•Y trap attractants to paper wasps, yellowjackets, and hornets. Experiment 2 (Aug. 5-13, 2009) tested behavioral responses of the paper wasps and yellowjackets to the Rescue® W•H•Y trap attractants (top attractants only) and its combination with (E)-4,8-dimethyl-1,3,7-nonatriene, one of the EAD-active and behaviorally significant HIPVs, in a dose-response fashion. Experiment 3 (Aug. 5-13, 2009) was conducted to determine the potential behavioral activity of different doses of (E)-4,8-dimethyl-1,3,7-nonatriene alone. The individual (or different doses) HIPVs were loaded into either polyethylene bags or centrifuge tube type of dispensers, and released from the top of the W•H•Y trap chamber. W•H•Y trap attractants (both top and bottom or top only) alone and water (top chamber only) were included in the test as positive and blank controls, respectively. The dispenser types, loading and release rates of the tested semiochemicals are described in Tables 1, 2 and 3.
(§3) Trap catch data were converted to proportion (P) of total captured wasps within each replicate. Data were then transformed by arcsin√P to meet the assumptions of normality and homogeneity of variances for ANOVA. Means were compared by ANOVA followed by the Ryan-Einot-Gabriel-Welsh (REGW) multiple Q test (SPSS 16.0 for Windows) at α=0.05.

[2] = system: P. dominulus; experiment: as above; type: in vivo, Polistes dominulus
Method: as §1
(§4) Experiment 3 (Aug. 5-13, 2009) was conducted to determine the potential behavioral activity of different doses of (E)-4,8-dimethyl-1,3,7-nonatriene alone. The individual (or different doses) HIPVs were loaded into either polyethylene bags or centrifuge tube type of dispensers, and released from the top of the W•H•Y trap chamber. W•H•Y trap attractants (both top and bottom or top only) alone and water (top chamber only) were included in the test as positive and blank controls, respectively. The dispenser types, loading and release rates of the tested semiochemicals are described in Tables 1, 2 and 3.
as §3

[3] = system: V. pensylvanica; experiment: Field trapping Experiment 2, DMNT dose-response with W•H•Y top attractants; type: in vivo, Vespula pensylvanica; details: Exp 2, DMNT added to WHY top attractant
Method: as §1, §4, §3

[4] = system: V. pensylvanica; experiment: Field trapping Experiment 3, different doses of DMNT alone; type: in vivo, Vespula pensylvanica
Method: as §1, §4, §3

[5] = system: V. atropilosa; experiment: as above; type: in vivo, Vespula atropilosa
Method: as §1, §4, §3

[6] = system: V. vulgaris; experiment: Field trapping Experiment 2, DMNT dose-response with W•H•Y top attractants; type: in vivo, Vespula vulgaris; details: Exp 2, DMNT added to WHY top attractant
Method: as §1, §4, §3

[7] = system: paper wasps and yellowjackets; experiment: Field trapping Experiment 2; type: in vivo, V. pensylvanica, V. vulgaris and P. dominulus; details: Exp 2
Method: as §1, with “To minimize positional effects and obtain more replications, wasp collections and trap re-randomization were carried out when ≧10-20 wasps were caught in the best trap. Each replicate lasted several days depending on wasp flight activity. Captured wasps were removed from the traps and kept in the zip-bags before taking back to the laboratory for recording of the species, gender status, and catch.” left out

[8] = system: D. maculata; experiment: Field trapping Experiment 3, different doses of DMNT alone; type: in vivo, Dolichovespula maculata
Method: as §1, §2, §3

[9] = system: V. atropilosa; experiment: Field trapping Experiment 2, DMNT dose-response with W•H•Y top attractants; type: in vivo, Vespula atropilosa; details: Exp 2, DMNT added to WHY top attractant
Method: as §1, §4, §3

[10] = Exp 3, release rate 0.25, hole 0.5 mm, loading 15 μL
[11] = Exp 3, release rate 0.5, hole 1 mm, loading 30 μL
[12] = Exp 3, release rate 1, hole 2 mm, loading 75 μL
[13] = Exp 3, release rate 1.5, hole 3 mm, loading 175 μL
[14] = Exp 3, release rate 2, hole 5.5 mm, loading 325 μL
[15] = release rate 0.25, hole 0.5 mm, loading 15 μL
[16] = release rate 0.5, hole 1 mm, loading 30 μL
[17] = release rate 1, hole 2 mm, loading 75 μL
[18] = release rate 1.5, hole 3 mm, loading 175 μL
[19] = release rate 2, hole 5.5 mm, loading 325 μL

With `C=C/C=C(\C)CCC=C(C)C` [(E)-4,8-dimethyl-1,3,7-nonatriene] the “Total Yellowjackets Caught D. arenaria” value [1, 10] was 0, the “Total Yellowjackets Caught D. arenaria” value [1, 11] was 0 and the “Total Yellowjackets Caught D. arenaria” value [1, 12] was 0. The “Total Yellowjackets Caught D. arenaria” value [1, 13] was 0, the “Total Yellowjackets Caught D. arenaria” value [1, 14] was 0 and the “Total Paper Wasps Caught P. dominulus” value [2, 10] was 7. The “Total Paper Wasps Caught P. dominulus” value [2, 11] was 6, the “Total Paper Wasps Caught P. dominulus” value [2, 12] was 4 and the “Total Paper Wasps Caught P. dominulus” value [2, 13] was 17. The “Total Paper Wasps Caught P. dominulus” value [2, 14] was 10, the “Total Yellowjackets Caught V. pensylvanica” value [3, 15] was 68 and the “Total Yellowjackets Caught V. pensylvanica” value [3, 16] was 90. The “Total Yellowjackets Caught V. pensylvanica” value [3, 17] was 47, the “Total Yellowjackets Caught V. pensylvanica” value [3, 18] was 77 and the “Total Yellowjackets Caught V. pensylvanica” value [3, 19] was 46. For the same molecule, the “Total Yellowjackets Caught V. pensylvanica” value [4, 10] was 43, the “Total Yellowjackets Caught V. pensylvanica” value [4, 11] was 12 and the “Total Yellowjackets Caught V. pensylvanica” value [4, 12] was 34. For the same molecule, the “Total Yellowjackets Caught V. pensylvanica” value [4, 13] was 24, the “Total Yellowjackets Caught V. pensylvanica” value [4, 14] was 24 and the “Total Yellowjackets Caught V. atropilosa” value [5, 10] was 2. For the same molecule, the “Total Yellowjackets Caught V. atropilosa” value [5, 11] was 1, the “Total Yellowjackets Caught V. atropilosa” value [5, 12] was 0 and the “Total Yellowjackets Caught V. atropilosa” value [5, 13] was 0. The “Total Yellowjackets Caught V. atropilosa” value [5, 14] was 1, the “Total Yellowjackets Caught V. vulgaris” value [6, 15] was 8 and the “Total Yellowjackets Caught V. vulgaris” value [6, 16] was 8. The “Total Yellowjackets Caught V. vulgaris” value [6, 17] was 5, the “Total Yellowjackets Caught V. vulgaris” value [6, 18] was 5 and the “Total Yellowjackets Caught V. vulgaris” value [6, 19] was 1. For the same molecule, the “effect on trap catches of the vespid workers” value ([7]; 0.5 or 1-1.5 mg/day added to the top attractants, especially V. pensylvanica, V. vulgaris and P. dominulus) was “significantly increased”, the “effect on the trap catches” value ([7]; other release rates (doses) added to the top attractants) was “no effect” and the “Total Yellowjackets Caught D. maculata” value [8, 10] was 0. The “Total Yellowjackets Caught D. maculata” value [8, 11] was 0, the “Total Yellowjackets Caught D. maculata” value [8, 12] was 0 and the “Total Yellowjackets Caught D. maculata” value [8, 13] was 0. The “Total Yellowjackets Caught D. maculata” value [8, 14] was 0, the “Total Yellowjackets Caught V. atropilosa” value [9, 15] was 0 and the “Total Yellowjackets Caught V. atropilosa” value [9, 16] was 0. The “Total Yellowjackets Caught V. atropilosa” value [9, 17] was 0, the “Total Yellowjackets Caught V. atropilosa” value [9, 18] was 0 and the “Total Yellowjackets Caught V. atropilosa” value [9, 19] was 1.
